Values quoted from earlier work as cited in patent US20110008412A1, “Oral Formulations for 5-HT-Receptor Agonists, Uses and Methods of Treatment Employing The Same” (CIPLA LIMITED, priority 2003, published 2011).

In the case of `CNS(=O)(=O)Cc1ccc2[nH]cc(CCN(C)C)c2c1` [sumatriptan, 3-[2-(dimethylamino)ethyl]-N-methyl-1H-indole-5-methanesulfonamide], the half-life (after subcutaneous and oral application) is listed as “about 2 hours” and the bioavailability (injected subcutaneously) is listed as 96%.
